Experiment [1] concerns contusive spinal cord injury in adult female Sprague-Dawley rats. Put plainly: grid-walk test after spinal cord injury. In kind it is in vivo, rat. Conditions: 12 weeks after spinal cord injury; for foot faults in the grid walk test versus vehicle: vehicle 6 foot-faults per meter. How it is done:
(§1) This Example describes methods of generating a moderate/severe contusive spinal cord injury with the Infinite Horizon device in adult female Sprague-Dawley rats for spinal cord injury (SCI) assays used in Examples 5-8. Briefly, rats were deeply anesthetized with a cocktail of ketamine/xylazine. Once under, the back was shaved and sterilized with Iodine and ethanol. Using a dorsal entry, the […] vertebrae 7-10 were exposed by a skin incision and at segments 8 and 9 a laminectomy was performed to expose the intact spinal cord. The spinal column and cord were stabilized in a stereotaxic frame prior to contusive impact. Finally, rats underwent a 250 kd Infinite Horizon contusion centered at the midline with no dwell time. Following muscle suturing and skin stapling, the animals were placed on a 37° C. hot pad and allowed ample access to food and water upon awakening from surgery. Pain was monitored, and animals in distress received a low dose of Marcaine at the injection site. Saline and Gentamycin (antibiotic) were given for 5 days post-surgery to prevent bladder infections. This experiment was performed start to finish 3 times. N−=15 ISP, N=11 vehicle and N=6 ILP.
(§2) Animals were randomly divided into three groups, vehicle control, ISP, or ILP. Lyophilized ISP or ILP peptide was first dissolved in sterile water at a concentration of 2.5 mM. To create individual treatments for each animal, the peptide was further diluted to a concentration of 5 μM in a vehicle solution of 5% DMSO in sterile saline. 25 ml of each treatment (ILP, ISP or vehicle) was alliquoted into 50 individual Eppendorf tubes, each containing 500 μl. The drugs were stored at −20 and thawed immediately prior to use. […]
Animals were allowed to freely roam on a wire grid (100 cm×75 cm, with 1 cm^2 gaps in the wire) 12 weeks after spinal cord injury. While an overhead camera tracked and calculated the total distance traveled (Ethovision), the number of foot-faults was counted manually by a blinded observer. […]

Experiment [2] has the same test system. As to the kind of experiment: Basso, Beattie and Bresnahan (BBB) scale for post-SCI locomotion. It counts as in vivo, rat. Conditions: for BBB recovery over the course of the next 10 weeks: after 2 weeks post injury; for BBB recovery over the course of the next 10 weeks / average BBB score: 5 μM, 500 μl subcutaneously daily. The method, then:
as §1
(§3) Animals were randomly divided into three groups, vehicle control, ISP, or ILP. Lyophilized ISP or ILP peptide was first dissolved in sterile water at a concentration of 2.5 mM. To create individual treatments for each animal, the peptide was further diluted to a concentration of 5 μM in a vehicle solution of 5% DMSO in sterile saline. 25 ml of each treatment (ILP, ISP or vehicle) was alliquoted into 50 individual Eppendorf tubes, each containing 500 μl. The drugs were stored at −20 and thawed immediately prior to use. Each animal received 500 μl of either vehicle, 5 μM ISP or 5 μM ILP subcutaneously into the back above the lesion each day, starting 1 day after injury and lasting 7 weeks (49 treatments, 11 μg/rat/day).
Animals were allowed to freely roam on a table-top for three minutes while their hindlimb movements and locomotor patterns were being scored by a blinded observer according to the Basso, Beattie and Bresnahan scale for post-SCI locomotion (Basso et al, 1995). Behavior was performed at post injury days 1, 4, 7 and then weekly for 10 additional weeks. Statistical analysis was conducted by repeated measures 2 way Anova.

Experiment [3] has the same test system. As to the kind of experiment: urinary behavior in metabolic cages after spinal cord injury. It counts as in vivo, rat. The method, then: as §1, §3
Animals were placed in metabolic cages overnight for a dark cycle (16 hours). The urine was separated and collected into a syringe linked to a force transducer. The increase in force corresponding to each individual void was plotted in spike-2. The graphs were sampled into excel and manually confirmed to count the total number of voids and the average volume of each void.

Experiment [4] concerns adult dissociated dorsal root ganglia neurons on gradients of CSPG. As to the kind of experiment: spot assay: processes crossing CSPG (aggrecan) gradient. It counts as cell-based, rat. Conditions: for neurons extend processes that cross CSPG gradients: peptide added at time of plating. The method, then:
Adult female rat sensory dorsal root ganglion (DRG) neurons were obtained and grown on gradients of the chondroitin sulfate proteoglycan aggrecan as previously described. Glass bottom delta-T time-lapse dishes were coated with Poly-L-Lysine (PLL) and incubated at room temperature overnight. Spots were created by dissolving 2 mg/ml aggrecan in calcium and magnesium free hanks balanced salt solution (HBSS). Eight 2 μl dots were placed into one half of each dish and given ample time to dry onto the glass. The dishes were finally coated in 10 μg/ml laminin for 3 hours at 37° C. Following incubation, six thousand adult dissociated DRG neurons were added to each dish in neural basal-A media supplemented with Glutamax, Penn/strep and B27. […] In this Example, the spot assay was conducted on glass coverslips with a few alterations from the technique used for time-lapse microscopy. Following PLL treatment, the coverslips were dried and coated with a small amount of nitrocellulose to increase adhesive interactions needed for spot formation. Following drying of nitrocellulose, 4 spots were dotted onto each coverslip (one in each quadrant) using 700 μg/ml aggrecan, 5 μg/ml laminin dissolved into HBSS. Following drying, the coverslips were coated in 5 μg/ml laminin at 37 degrees C. for 3 hours. 2,000 adult dissociated dorsal root ganglia neurons were added to each coverslip in neural basal-A media supplemented with Glutamax, Penn/strep and B27. In addition, peptides were added at the required concentration at the time of plating. Cells were allowed to grow for 5 days prior to fixation in 4% Paraformaldehyde. These peptides were ordered from Genscript and dissolved in water and stored long-term at −80° C. Peptides were added to media at time of neuronal plating. After 5 days in vitro, the cells were fixed and stained for mouse anti-B3Tubulin (green). The number of processes completely spanning the gradient were counted and normalized to the number of neuronal cell bodies on each individual spot.

Experiment [5] concerns contusive spinal cord injury in adult female Sprague-Dawley rats. As to the kind of experiment: terminal urodynamic analyses after spinal cord injury. Particulars: 14 weeks post injury. In kind it is in vivo, rat. How it is done:
as §1, with “ILP. […]” for “ILP.”
In a terminal experiment, animals were anesthetized with Urethane at 14 weeks post injury. […] Both muscle activity and pressure (measured through the catheter) were plotted in spike2.

Experiment [6] has the same test system. As to the kind of experiment: recovery beyond vehicle across behaviors after spinal cord injury. It counts as in vivo, rat. The method, then:
as §1
Animals were randomly divided into three groups, vehicle control, ISP, or ILP. Lyophilized ISP or ILP peptide was first dissolved in sterile water at a concentration of 2.5 mM. […]

The subject of experiment [7] is 5HT expression in the lumbar spinal cord. As to the kind of experiment: 5HT expression (axonal density) in lumbar spinal cord after spinal cord injury. In kind it is in vivo, rat. The method, then: as §1, §2
For axonal density analysis, the gray matter was outlined and mean pixel intensity was calculated in ImageJ. […] One section selected randomly every 200 μm was analyzed over a total distance of 2 cm […]. […]

The test system of experiment [8] is growth cones of adult sensory DRG neurons on gradients of CSPG aggrecan. Put plainly: time-lapse microscopy of growth cone motility in CSPG spot assay. In kind it is cell-based, rat. Particulars: 4-6 days in vitro. How it is done:
Adult female rat sensory dorsal root ganglion (DRG) neurons were obtained and grown on gradients of the chondroitin sulfate proteoglycan aggrecan as previously described. Glass bottom delta-T time-lapse dishes were coated with Poly-L-Lysine (PLL) and incubated at room temperature overnight. Spots were created by dissolving 2 mg/ml aggrecan in calcium and magnesium free hanks balanced salt solution (HBSS). Eight 2 μl dots were placed into one half of each dish and given ample time to dry onto the glass. The dishes were finally coated in 10 μg/ml laminin for 3 hours at 37° C. Following incubation, six thousand adult dissociated DRG neurons were added to each dish in neural basal-A media supplemented with Glutamax, Penn/strep and B27. The cells were allowed to grow for 4-6 days Immediately prior to the start of time lapse, the delta T dishes were sealed with a glass coverslip. 100× time-lapse microscopy was performed with a heated objective and heated stage to keep the cells at 37 degrees. Images were obtained every 30 seconds and stitched together to create a time lapse movie. Growth cone and filopodial dynamics were tracked and quantified manually with Metamorph.

For a further experiment, the target named is PTPσ (Homo sapiens, UniProt Q13332). As to the kind of experiment: pull-down assays, wedge domain with PTPσ. It counts as binding.
The target of a further experiment is full length LAR (Homo sapiens, UniProt P10586). Put plainly: pull-down assays, wedge domain with full length LAR. In kind it is binding.

Several values for one entry are separate records, joined by “and”; a condition that tells them apart may be missing. Equal entries are not always repeated.

Sequence of full length LAR (P10586 30-1907, species assumed): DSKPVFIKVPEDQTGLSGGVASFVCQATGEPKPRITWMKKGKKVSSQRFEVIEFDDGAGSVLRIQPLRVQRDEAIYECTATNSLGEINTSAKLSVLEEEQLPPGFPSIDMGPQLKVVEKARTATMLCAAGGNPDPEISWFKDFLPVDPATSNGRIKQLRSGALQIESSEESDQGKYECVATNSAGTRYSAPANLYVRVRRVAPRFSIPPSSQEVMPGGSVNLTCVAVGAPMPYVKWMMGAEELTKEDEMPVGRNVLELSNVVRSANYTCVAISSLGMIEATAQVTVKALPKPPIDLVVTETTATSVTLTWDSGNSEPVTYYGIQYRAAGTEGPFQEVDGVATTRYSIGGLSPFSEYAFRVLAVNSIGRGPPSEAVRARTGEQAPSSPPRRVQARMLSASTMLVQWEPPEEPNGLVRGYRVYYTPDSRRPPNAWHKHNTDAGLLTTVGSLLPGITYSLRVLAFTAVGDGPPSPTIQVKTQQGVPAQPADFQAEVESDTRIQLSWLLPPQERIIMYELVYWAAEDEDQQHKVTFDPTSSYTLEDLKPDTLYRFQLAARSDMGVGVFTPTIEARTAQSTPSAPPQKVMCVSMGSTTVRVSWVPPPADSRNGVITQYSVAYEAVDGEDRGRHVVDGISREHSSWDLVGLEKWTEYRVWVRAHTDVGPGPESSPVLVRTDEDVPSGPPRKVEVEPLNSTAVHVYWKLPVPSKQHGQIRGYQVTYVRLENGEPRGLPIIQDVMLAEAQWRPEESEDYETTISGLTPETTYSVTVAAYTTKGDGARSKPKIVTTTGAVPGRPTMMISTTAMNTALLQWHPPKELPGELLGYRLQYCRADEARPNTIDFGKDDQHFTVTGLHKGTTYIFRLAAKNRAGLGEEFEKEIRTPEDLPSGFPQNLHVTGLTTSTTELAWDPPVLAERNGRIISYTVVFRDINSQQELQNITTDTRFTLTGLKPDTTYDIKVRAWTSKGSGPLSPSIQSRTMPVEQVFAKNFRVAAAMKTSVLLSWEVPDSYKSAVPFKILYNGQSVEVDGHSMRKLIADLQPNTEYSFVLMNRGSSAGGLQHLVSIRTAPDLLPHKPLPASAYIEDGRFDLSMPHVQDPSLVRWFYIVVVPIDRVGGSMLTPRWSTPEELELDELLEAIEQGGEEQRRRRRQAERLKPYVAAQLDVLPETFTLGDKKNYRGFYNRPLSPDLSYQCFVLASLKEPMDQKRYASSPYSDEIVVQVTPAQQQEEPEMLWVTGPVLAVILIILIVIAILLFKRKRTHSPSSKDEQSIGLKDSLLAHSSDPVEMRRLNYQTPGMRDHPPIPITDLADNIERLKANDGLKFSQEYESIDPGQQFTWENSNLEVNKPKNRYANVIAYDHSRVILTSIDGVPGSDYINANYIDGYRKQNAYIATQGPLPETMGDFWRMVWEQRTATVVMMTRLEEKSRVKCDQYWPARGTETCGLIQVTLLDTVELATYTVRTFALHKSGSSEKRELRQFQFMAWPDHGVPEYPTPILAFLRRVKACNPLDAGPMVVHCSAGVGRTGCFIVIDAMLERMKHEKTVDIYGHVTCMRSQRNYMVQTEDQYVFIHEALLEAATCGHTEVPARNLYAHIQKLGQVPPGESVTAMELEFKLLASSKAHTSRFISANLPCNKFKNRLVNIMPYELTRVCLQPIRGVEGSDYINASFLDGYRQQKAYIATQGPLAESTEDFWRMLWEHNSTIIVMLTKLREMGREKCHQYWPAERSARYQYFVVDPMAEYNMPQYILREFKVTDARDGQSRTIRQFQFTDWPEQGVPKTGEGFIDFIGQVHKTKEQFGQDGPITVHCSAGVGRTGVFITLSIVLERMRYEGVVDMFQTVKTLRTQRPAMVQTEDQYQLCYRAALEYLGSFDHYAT
Sequence of PTPσ (Q13332 30-1948): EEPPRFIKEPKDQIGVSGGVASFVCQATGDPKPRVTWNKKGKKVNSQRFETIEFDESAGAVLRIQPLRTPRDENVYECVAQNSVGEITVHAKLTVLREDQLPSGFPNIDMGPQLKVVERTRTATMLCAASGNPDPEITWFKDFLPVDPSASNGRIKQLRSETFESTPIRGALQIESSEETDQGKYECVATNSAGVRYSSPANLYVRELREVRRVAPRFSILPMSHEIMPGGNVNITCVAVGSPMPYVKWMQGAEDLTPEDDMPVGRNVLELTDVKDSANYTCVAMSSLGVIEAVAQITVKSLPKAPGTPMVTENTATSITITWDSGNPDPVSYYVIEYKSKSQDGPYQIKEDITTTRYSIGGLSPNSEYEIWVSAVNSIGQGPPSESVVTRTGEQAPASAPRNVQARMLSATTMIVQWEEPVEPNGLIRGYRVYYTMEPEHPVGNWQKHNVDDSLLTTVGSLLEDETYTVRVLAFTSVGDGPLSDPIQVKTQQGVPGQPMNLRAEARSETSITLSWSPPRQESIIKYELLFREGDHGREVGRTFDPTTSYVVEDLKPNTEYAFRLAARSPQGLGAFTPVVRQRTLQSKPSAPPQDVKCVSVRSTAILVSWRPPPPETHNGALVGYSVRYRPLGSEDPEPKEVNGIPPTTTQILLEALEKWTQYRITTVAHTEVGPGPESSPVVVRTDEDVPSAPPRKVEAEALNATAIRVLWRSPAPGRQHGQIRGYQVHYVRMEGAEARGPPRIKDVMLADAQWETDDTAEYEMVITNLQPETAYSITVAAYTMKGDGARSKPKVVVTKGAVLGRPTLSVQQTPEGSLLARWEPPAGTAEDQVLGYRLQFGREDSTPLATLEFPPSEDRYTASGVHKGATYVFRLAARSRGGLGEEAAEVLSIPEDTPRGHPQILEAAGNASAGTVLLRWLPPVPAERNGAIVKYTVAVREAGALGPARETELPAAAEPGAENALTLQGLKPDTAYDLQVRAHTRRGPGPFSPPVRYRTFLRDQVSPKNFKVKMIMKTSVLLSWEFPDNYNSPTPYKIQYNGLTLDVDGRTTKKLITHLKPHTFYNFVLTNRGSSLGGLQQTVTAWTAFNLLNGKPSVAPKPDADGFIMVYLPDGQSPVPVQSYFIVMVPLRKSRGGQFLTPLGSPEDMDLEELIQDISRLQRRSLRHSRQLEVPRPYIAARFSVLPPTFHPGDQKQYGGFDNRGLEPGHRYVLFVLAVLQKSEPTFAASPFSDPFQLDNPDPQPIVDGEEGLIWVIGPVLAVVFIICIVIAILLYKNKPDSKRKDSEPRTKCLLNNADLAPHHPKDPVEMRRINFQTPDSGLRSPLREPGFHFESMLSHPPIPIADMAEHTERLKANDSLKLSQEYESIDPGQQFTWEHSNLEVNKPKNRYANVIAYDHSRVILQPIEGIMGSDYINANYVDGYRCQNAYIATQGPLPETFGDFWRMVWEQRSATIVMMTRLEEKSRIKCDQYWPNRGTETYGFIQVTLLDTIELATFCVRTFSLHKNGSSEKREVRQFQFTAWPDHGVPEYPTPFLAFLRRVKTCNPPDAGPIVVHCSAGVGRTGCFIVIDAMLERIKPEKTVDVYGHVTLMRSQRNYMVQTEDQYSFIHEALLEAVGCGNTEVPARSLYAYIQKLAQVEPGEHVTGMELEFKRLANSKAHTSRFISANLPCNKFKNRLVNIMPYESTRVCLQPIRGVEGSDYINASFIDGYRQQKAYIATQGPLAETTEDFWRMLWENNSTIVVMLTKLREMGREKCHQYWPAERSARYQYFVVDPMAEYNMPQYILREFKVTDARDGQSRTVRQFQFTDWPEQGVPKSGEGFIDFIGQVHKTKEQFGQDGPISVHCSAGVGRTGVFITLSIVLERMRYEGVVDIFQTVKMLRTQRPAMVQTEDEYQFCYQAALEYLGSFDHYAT

Turning to “NH2GRKKRRQRRRCDLADNIERLKANDGLKFSQEYESI-NH2 (H-GRKKRRQRRRCDLADNIERLKANDGLKFSQEYESI-NH2; listed as Homo sapiens) [ILP, LAR wedge domain peptide conjugated to HIV-TAT]”, the “foot faults in the grid walk test versus vehicle” value in [1] is given as “very slight insignificant improvement”. Moreover, the “BBB recovery over the course of the next 10 weeks” value in experiment [2] is reported as “recovered only slightly beyond this point”. Further, the “void frequency (absolute)” value in [3] (naïve animals urinate twice per hour) is listed as “once every two hours”. For the same substance, in experiment [3] (versus naïve animals), the volume/void entry is given as “significantly increased”. Moreover, the “neurons extend processes that cross CSPG gradients” value in [4] (5 days in vitro) is reported as “also allows neurons to traverse gradients of CSPG”.
As to “NH2GRKKRRQRRRCIREDDSLMLYALAQEKKESNMHES-NH2 (H-GRKKRRQRRRCIREDDSLMLYALAQEKKESNMHES-NH2; listed as Homo sapiens) [scrambled ISP-TAT peptide, reference compound]”, the “neurons extend processes that cross CSPG gradients” value in experiment [4] (5 days in vitro) is given as “Neither vehicle control nor the scrambled ISP-TAT peptide allowed neuronal extensions across the gradient”.
In the case of “NH2GRKKRRQRRRCDMAEHMERLKANDSLKLSQEYESI-NH2 [ISP]”, the “foot faults made by several individual animals” value in experiment [1] (several animals) is reported as “less than 3 foot faults”. For the same substance, in experiment [1], the “foot faults in the grid walk test versus vehicle” value is “significantly fewer foot faults”. For the same substance, the “coordinated bladder contractions with external urethral sphincter bursting” value in experiment [5] is listed as “many animals recovered coordinated bladder contractions with patterned external urethral sphincter bursting”. Moreover, the “animals with significant behavioral improvements” value in experiment [6] (greater than two standard deviations better than vehicle mean) was 13 of 15. In addition, the “animals regaining significant function in all three behaviors” value in experiment [6] (rat, in vivo) is recorded as 4 animals. Moreover, the “5HT staining throughout the gray matter” value in [7] (14 weeks following spinal cord injury, lumbar spinal cord) is recorded as “dramatic increase”. For the same substance, the “quantified 5HT expression throughout the gray matter” value in [7] (FIG. 15) was “significantly increased”. Moreover, the “5HT expression in non-responders” value in experiment [7] (the two ISP non-responders) is on record as “did not show a dramatic rise”. Besides, the “axonal stabilization and over adhesion in time-lapse” value in [8] is “prevented axonal stabilization and over adhesion”. For the same substance, the “growth cones still motile” value in [8] (8% in the control condition) stood at 65%. Further, in [2] (6 weeks), the “average BBB score” value was 12. In addition, the “average BBB score” value in experiment [2] (7 weeks) was “greater than 13”. Besides, in experiment [2], the “BBB recovery over the course of the next 10 weeks” value was “continued to recover”. Further, the “BBB score reached by individual animals” value in experiment [2] (individual animals) is 19 and 18.5. For the same substance, the “animals that regained at least frequent coordinated stepping” value in experiment [2] (rat, in vivo) is 7 of 15. Besides, the “recovery of void frequency” value in [3] (4 or 8 weeks post injury) was “no significant recovery”. In addition, the void frequency entry in [3] (12 weeks post injury) was “significant increase in void frequency”. The “animals reaching naïve micturition frequency” value in experiment [3] (rat, in vivo) was “multiple animals reaching normal (naïve) micturition frequency levels”. Moreover, the “increase of post-injury void frequency on average” value in experiment [3] (versus vehicle) is on record as “two fold”. Further, in experiment [4], the “dose dependence of gradient crossing” value is “dose dependent”. Further, in experiment [4] (5 days in vitro), the “concentration giving optimal crossing of CSPG gradient” value turned out to be 2.5 μm and the “neurons extend processes that cross CSPG gradients” value was “allows neurons to extend processes that cross CSPG gradients”.
As for “DLADNIERLKANDGLKFSQEYESI (listed as Rattus rattus) [wedge domain of LAR, 24 amino acid wedge-shaped helix-loop-helix motif of LAR used in pull-down assays]”, the binding to sigma entry in the experiment with PTPσ is “unable to bind to sigma”. In the experiment with full length LAR, the “interaction with full length LAR” value was “able to specifically interact with full length LAR”.

The values are drawn from patent US12171834B2, “Compositions and methods for inhibiting the activity of LAR family phosphatases” (CASE WESTERN RESERVE UNIVERSITY, priority 2012, dated 2024).
